Tested on: Smn protein
Test: Smn protein levels in tissues of Δ7 SMA mice of the survival study
Assay type: in vivo
Conditions: Compound 65 until PND 144, Compound 69 until PND 80 and PND 83, relative to vehicle treated and age-matched heterozygous mice, FIG. 16
Description: The tissue samples in Safe-Lock tubes are weighed and the volume of RIPA buffer containing the protease inhibitor cocktail is added based on the weight to volume ratios for each type of tissue: Brain (50 mgmL), Muscle (50 mgmL) and Spinal Cord (25 mgmL).
Tissues are homogenized using the TissueLyzer by bead milling. 5 mm stainless steel beads are added to the sample and shaken vigorously for 5 minutes at 30 Hz in the TissueLyzer. The samples are then centrifuged for 20 minutes at 14,000×g in a microcentrifuge and the homogenates transferred to the PCR plate. The homogenates are diluted in RIPA buffer to approximately 1 mgmL for HTRF and approximately 0.5 mgmL for total protein measurement using the BCA protein assay. […] Fluorescence for each well of the plate at 665 nm and 620 nm is measured on an EnVision multilabel plate reader (Perkin-Elmer). The total protein in the tissue homogenate is measured using the BCA assay according to the manufacturer's protocol.
The normalized fluorescence signal is calculated for each sample, Blank and vehicle control well by dividing the signal at 665 nm by the signal at 620 nm. Normalizing the signal accounts for possible fluorescence quenching due to the matrix effect of the tissue homogenate. […] The ΔF value for each tissue sample well is divided by the total protein quantity (determined using the BCA assay) for that tissue sample. […]

Structure (SMILES): Cc1cn2cc(-c3cc4ccc(N5CCN(C)CC5)cc4c(=O)o3)nc2c(C)n1 [Cpd 65, 3-(6,8-dimethylimidazo[1,2-a]pyrazin-2-yl)-7-(4-methylpiperazin-1-yl)-1H-isochromen-1-one]
- Smn protein expression in brain and muscle tissues: increased Smn protein expression in brain and muscle tissues

Structure (SMILES): Cc1cn2cc(-c3cc4ccc(N5CCN6CCC[C@H]6C5)cc4c(=O)o3)nc2c(C)n1 [Cpd 69, 3-(6,8-dimethylimidazo[1,2-a]pyrazin-2-yl)-7-[(8aS)-hexahydropyrrolo[1,2-a]pyrazin-2(1H)-yl]-1H-isochromen-1-one]
- Smn protein expression in brain and muscle tissues: increased Smn protein expression in brain and muscle tissues

Source: patent US9399649B2, “Compounds for treating spinal muscular atrophy” (PTC Therapeutics Inc., priority 2012, dated 2016)
